Results from publication PMC12257394, “Design, Synthesis, and Biological Evaluation of Ferrocenyl–Cyclo-(Gly‑L‑Pro) Hybrids Sensitizing Multidrug-Resistant Cancer Cells to Anticancer Agents” (ACS Medicinal Chemistry Letters, 2025).

Columns and labels:
Assay type in all cases: cell-based, human
[1] = Neutral red uptake viability assay, SW620C; details: human, SW620C cells (cisplatin-resistant); SW620C, 72 h, n = 3; read-out: Cytotoxic activity IC50 (95% CI)
Experimental: (§1) The normal lung fibroblast MRC-5 and colorectal adenocarcinoma SW620 cell lines used in this experiment were purchased from American Type Culture Collection (USA) via LGC […]
(§2) described previously.10, 11 All cells were cultured under standard conditions (37°C, 5% CO2, 100% humidity) in high-glucose DMEM supplemented with GlutaMaxTM, HEPES (ThermoFisher Scientific, USA), and 10% fetal bovine serum (EURx, Poland). Cells were routinely tested for potential Mycoplasma contamination using the MycoProbe Mycoplasma Detection kit (R&D System, USA).
(§3) In total, 104 cells in 100 µL of complete medium were plated per well of a 96-well plate and left overnight to allow cells to adhere to the surface. Then, the cells were exposed to a desired concentration of tested compound(s). Stock solutions were prepared in DMSO and used immediately. The final DMSO concentration was constant and nontoxic (0.1% v/v). After 70-h incubation, neutral red was added to the final concentration of 1 mM. After another 2 h, the medium was aspirated, and cells were washed twice with PBS. Dye was released using 100 µL of a solubilizer (1% acetic acid in 50% ethanol) on an orbital shaker (10 min). Absorbance was read at 540 nm using EnVision Multilabel Plate Reader (Perkin Elmer, USA). Results were expressed as % of control. The IC50 parameters were calculated using GraphPad Prism version 10 (GraphPad Software, Boston, Massachusetts USA). […]
IC₅₀ values were determined in […]
(§4) All experiments were performed in triplicate (n = 3).

[2] = Neutral red uptake viability assay, SW620D; details: human, SW620D cells (doxorubicin-resistant), 72 h, n = 3, read-out: Cytotoxic activity IC50 (95% CI)
Experimental: (§5) In general, compounds 4a–e exerted little or no cytotoxic effect on either SW620 or multidrug-resistant sublines even at 10 μM, with the remarkable exception of SW620C (cisplatin-selected variant of SW620) cells, which turned out to be relatively susceptible toward ferrocenyl 4a–c. […] This trend may reflect steric or electronic contributions to cellular uptake or interaction with intracellular targets. […] However, since E/Z isomeric data are currently available only for compound 4c, this hypothesis requires validation. To quantify this effect, IC50 values were determined (Table ). […]
as §1
as §2, with “Standards. Multidrug-resistant variants of SW620 cells were developed in our laboratory as described” for “described”
(§6) In total, 104 cells in 100 µL of complete medium were plated per well of a 96-well plate and left overnight to allow cells to adhere to the surface. Then, the cells were exposed to a desired concentration of tested compound(s). Stock solutions were prepared in DMSO and used immediately. The final DMSO concentration was constant and nontoxic (0.1% v/v). After 70-h incubation, neutral red was added to the final concentration of 1 mM. After another 2 h, the medium was aspirated, and cells were washed twice with PBS. Dye was released using 100 µL of a solubilizer (1% acetic acid in 50% ethanol) on an orbital shaker (10 min). Absorbance was read at 540 nm using EnVision Multilabel Plate Reader (Perkin Elmer, USA). Results were expressed as % of control. The IC50 parameters were calculated using GraphPad Prism version 10 (GraphPad Software, Boston, Massachusetts USA).
(§7) The enhancement of reversal potency (ERP) value determination
(§8) For MDR reversal assays, cytotoxic agents were co-administered with compounds 4a–4e at equimolar concentrations in a range of 10 nM to 100 µM. IC₅₀ values were determined in ABCB1-overexpressing SW620 cell line variants. The enhancement of reversal potency (ERP) was calculated using the following formula: ERP = IC₅₀(drug)MDR / IC₅₀(drug + compound)MDR. All experiments were performed in triplicate (n = 3).

[3] = Neutral red uptake viability assay, SW620M; details: human, SW620M cells (methotrexate-resistant), 72 h, n = 3, read-out: Cytotoxic activity IC50 (95% CI)
Experimental: as §5, §1
as §2, with “Standards. Multidrug-resistant variants of SW620 cells were developed in our laboratory as described” for “described”
as §3, §4

[4] = Neutral red uptake viability assay, SW620V; details: human, SW620V cells (vincristine-resistant), 72 h, n = 3, read-out: Cytotoxic activity IC50 (95% CI)
Experimental: as §5, §1
as §2, with “Standards. Multidrug-resistant variants of SW620 cells were developed in our laboratory as described” for “described”
as §6, §7, §8

Measured: IC50 at 72 h

O=C1N/C(=C/c2ccccc2)C(=O)N2CCC[C@@H]12 [(S,E)-4e]
> 100 µM: all assays above

O=C1N/C(=C\c2ccccc2)C(=O)N2CCC[C@@H]12 [(S,Z)-4e]
> 100 µM: all assays above
